These results are taken from patent publication US20220026414A1, “CELL-BASED BIOIDENTITY TEST FOR INSULIN” (Merck Sharp & Dohme Corp., priority 2018, published 2022).

For this test, the system named is human G6PC promoter luciferase reporter in H4IIE rat hepatoma cells. Nature of the test: H4IIE G6P-Luc reporter assay (luciferase under control of the G6PC promoter, clone C17-2). The test is classed as cell-based. To be noted: for Geometric mean of measured relative potency: pre-qualification study. The text has this:
The H4IIE G6P-Luc C17-2 stable cell line was generated by stably expressing Luciferase reporter gene under the control of G6PC promoter via lentivirus technology. Briefly, the human G6PC promoter −1227/+57 sequence (SEQ ID NO: 1) was synthesized and subcloned into pLenti-NFAT-Luc vector to replace NFAT promoter. Lentivirus was generated comprising the construct and H4IIE parental cells were transduced with the lentivirus and screened with the selection antibiotic Hygromycin B. The resulting stable pool cells were validated by quantitative polymerase chain reaction (qPCR) and luciferase assay. The initial work of generating a H4IIE G6P-Luc stable cell line was outsourced to GenScript, Piscataway, N.J. USA. The stable cell pool was re-cloned in-house with limiting dilutions to identify additional clones. H4IIE_G6P-Luc C17-2 is a single clone stable cell line selected for its high assay window (difference in fluorescence detected in a sample containing 1 nM insulin versus fluorescence detected in a sample containing no insulin) and fast growth rate.
The H4IIE_G6P-Luc_C17-2 cells were cultured in Dulbecco's Modified Eagle's medium (DMEM), supplemented with 10% fetal bovine serum (FBS), 1× penicillin-streptomycin, and 0.3 mg/mL Hygromycin B. […] 25 μL insulin titration was aliquoted into the wells of a solid white 96-well tissue-culture treated assay plate. […] Afterwards, […] of ONE-GLO luciferase regent was added to the assay plate. After 10 minutes incubation at room temperature, luminescence signal was read on the EnVision plate reader (Perkin Elmer, Waltham, Mass. USA).

As for Insulin glargine, the “inhibition of luciferase reporter expression” value reads like this: (clone C17-2, 7-hour treatment (FIG. 2A)) “mild inhibition”; (clone C17-2, overnight treatment (17-hours) (FIG. 2A)) “robust inhibition”. Further, for the setting “clone C17-2, lower amounts of FBS in assay medium (FIG. 2C)”, the “inhibition of luciferase expression” value was “Less inhibition of luciferase expression”. Also, where the note is “clone C17-2 after 29 cell passages (P29) (FIG. 2D)”, the dose response curve result was “well-formed dose response curve”. Moreover, the “Geometric mean of measured relative potency” value is listed as 51 (target relative potency 50% of reference material, N=12); 68 (target relative potency 71% of reference material, N=12); 103 (target relative potency 100% of reference material, N=24); 132 (target relative potency 141% of reference material, N=12); 196 (target relative potency 200% of reference material, N=12).

Consider “recombinant human insulin: NOVOLIN (recombinant human insulin) purchased from Novo Nordisk”, for which the “inhibition of luciferase reporter expression” value (top two clones (C17, C58), overnight treatment compared with seven-hour treatment (FIG. 1C)) is reported as “significantly better inhibition”.
